PubChem BioAssay AID328 (DTP/NCI, 2004)
“And” between values parts separate entries of the source, which are not always exact repeats. Identical values can stand only once. Toxic doses and inconclusive results are not listed.

System: BDF1 mice, P388 leukemia ip, median survival T/C
Experiment: NCI In Vivo Anticancer Drug Screen. Data for tumor model P388 Leukemia (intraperitoneal) in B6D2F1 (BDF1) mice
Conditions: endpoint: median survival time, higher = longer survival
How it was run: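 Steps: implant the tumour, treat one group with compound and another with vehicle, record survival, then divide treated by control.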

[1] = dose: 25.0 mg/kg/injection, schedule: Q04DX003 (ip), vehicle: saline
[2] = dose: 50.0 mg/kg/injection, schedule: Q01DX009 (ip), vehicle: saline
[3] = dose: 50.0 mg/kg/injection, schedule: Q04DX003 (ip), vehicle: saline
[4] = dose: 100.0 mg/kg/injection, schedule: Q01DX009 (ip), vehicle: saline
[5] = dose: 100.0 mg/kg/injection, schedule: Q04DX003 (ip), vehicle: saline
[6] = dose: 100.0 mg/kg/injection, schedule: Q04DX003 (ip), vehicle: Klucel (hydroxypropylcellulose) (HPC)
[7] = dose: 200.0 mg/kg/injection, schedule: Q04DX003 (ip), vehicle: Klucel (hydroxypropylcellulose) (HPC)
[8] = dose: 400.0 mg/kg/injection, schedule: Q04DX003 (ip), vehicle: Klucel (hydroxypropylcellulose) (HPC)
[9] = dose: 200.0 mg/kg/injection, schedule: Q01DX009 (ip), vehicle: saline
[10] = dose: 50.0 mg/kg/injection, schedule: Q01DX009 (ip), vehicle: saline with Tween-80
[11] = dose: 100.0 mg/kg/injection, schedule: Q01DX009 (ip), vehicle: saline with Tween-80
[12] = dose: 200.0 mg/kg/injection, schedule: Q01DX009 (ip), vehicle: saline with Tween-80
[13] = dose: 25.0 mg/kg/injection, schedule: Q01DX009 (ip), vehicle: saline with Tween-80
[14] = dose: 50.0 mg/kg/injection, schedule: Q04DX003 (ip), vehicle: saline with Tween-80
[15] = dose: 100.0 mg/kg/injection, schedule: Q04DX003 (ip), vehicle: saline with Tween-80
[16] = dose: 200.0 mg/kg/injection, schedule: Q04DX003 (ip), vehicle: saline with Tween-80
[17] = dose: 12.5 mg/kg/injection, schedule: Q01DX009 (ip), vehicle: saline with Tween-80

SMILES: CC12C=CC(=O)C=C1CCC1C3CCC(O)(C(=O)CO)C3(C)CC(O)C12F (stereo not drawn)
- T/C (dose: 25.0 mg/kg/injection, schedule: Q04DX003 (sc), vehicle: steriod suspending solution): 113 % of control
- T/C (dose: 50.0 mg/kg/injection, schedule: Q04DX003 (sc), vehicle: steriod suspending solution): 86 % of control
- T/C (dose: 56.25 mg/kg/injection, schedule: Q01DX009 (sc), vehicle: steriod suspending solution): 100 % of control
- T/C (dose: 100.0 mg/kg/injection, schedule: Q04DX003 (sc), vehicle: steriod suspending solution): 86 % of control
- T/C (dose: 112.5 mg/kg/injection, schedule: Q01DX009 (sc), vehicle: steriod suspending solution): 118 % of control
- T/C (dose: 150.0 mg/kg/injection, schedule: Q04DX003 (sc), vehicle: steriod suspending solution): 104 % of control
- T/C (dose: 225.0 mg/kg/injection, schedule: Q01DX009 (sc), vehicle: steriod suspending solution): 104 % of control
- T/C (dose: 225.0 mg/kg/injection, schedule: Q04DX003 (sc), vehicle: steriod suspending solution): 90 % of control

SMILES: COc1cc2cc[n+](C)cc2cc1OC
- T/C (dose: 6.25 mg/kg/injection, schedule: Q04DX003 (ip), vehicle: water): 94 % of control
- T/C (dose: 12.5 mg/kg/injection, schedule: Q04DX003 (ip), vehicle: water): 94 % of control
- T/C [1]: 100 % of control
- T/C (dose: 25.0 mg/kg/injection, schedule: Q04DX003 (ip), vehicle: water): 107 % of control
- T/C [2]: 100 % of control
- T/C [3]: 86 % of control and 104 % of control
- T/C (dose: 50.0 mg/kg/injection, schedule: Q04DX003 (ip), vehicle: water): 111 % of control
- T/C [4]: 100 % of control
- T/C [5]: 88 % of control and 90 % of control and 113 % of control
- T/C (dose: 100.0 mg/kg/injection, schedule: Q04DX003 (ip), vehicle: water): 111 % of control

SMILES: O=C(CC(c1ccccc1)c1ccccc1)c1ccccc1
- T/C (dose: 100.0 mg/kg/injection, schedule: Q01DX009 (ip), vehicle: Klucel (hydroxypropylcellulose) (HPC)): 108 % of control
- T/C [6]: 120 % of control
- T/C (dose: 200.0 mg/kg/injection, schedule: Q01DX009 (ip), vehicle: Klucel (hydroxypropylcellulose) (HPC)): 108 % of control
- T/C [7]: 110 % of control
- T/C (dose: 400.0 mg/kg/injection, schedule: Q01DX009 (ip), vehicle: Klucel (hydroxypropylcellulose) (HPC)): 91 % of control
- T/C [8]: 120 % of control

SMILES: O=c1[nH]cnc2ccnn12
- T/C (dose: 25.0 mg/kg/injection, schedule: Q01DX009 (ip), vehicle: saline): 103 % of control
- T/C [2]: 100 % of control
- T/C (dose: 75.0 mg/kg/injection, schedule: Q01DX009 (ip), vehicle: saline): 101 % of control
- T/C [4]: 100 % of control
- T/C [9]: 90 % of control

SMILES: CCCCCCCCCCCCN=Cc1cc(Cc2ccc(O)c(C=NCCCCCCCCCCCC)c2)ccc1O
- T/C [10]: 106 % of control
- T/C [11]: 106 % of control
- T/C [12]: 123 % of control

SMILES: O=S(=O)(Nc1ccc(NS(=O)(=O)c2ccccc2)c(S(=O)(=O)c2ccccc2)c1)c1ccccc1
- T/C (dose: 100.0 mg/kg/injection, schedule: Q01DX001 (ip), vehicle: saline with Tween-80): 100 % of control
- T/C (dose: 200.0 mg/kg/injection, schedule: Q01DX001 (ip), vehicle: saline with Tween-80): 100 % of control
- T/C (dose: 400.0 mg/kg/injection, schedule: Q01DX001 (ip), vehicle: saline with Tween-80): 100 % of control

SMILES: CC1(C)c2ccccc2C(C)(C(Cl)(Cl)Cl)c2ccc(Cl)cc21 (stereo not drawn)
- T/C [10]: 96 % of control
- T/C [11]: 99 % of control
- T/C [12]: 92 % of control
- T/C (dose: 400.0 mg/kg/injection, schedule: Q01DX009 (ip), vehicle: saline with Tween-80): 97 % of control

SMILES: COc1cc(/C=C2\C(=O)NC(=O)N(c3ccccc3)C2=O)cc(OC)c1OC
- T/C [13]: 109 % of control
- T/C [10]: 118 % of control
- T/C [14]: 100 % of control
- T/C [11]: 118 % of control
- T/C [15]: 108 % of control
- T/C [16]: 112 % of control

SMILES: Nc1nc(SCc2ccccc2Cl)c2ncn(C3OC(CO)C(O)C3O)c2n1 (stereo not drawn)
- T/C [4]: 105 % of control
- T/C [6]: 100 % of control
- T/C [9]: 90 % of control
- T/C [7]: 118 % of control
- T/C [8]: 118 % of control

SMILES: CC(C)CC(B1OCCO1)(C1CCCCC1)C1CCCCC1
- T/C [17]: 100 % of control
- T/C [13]: 100 % of control
- T/C [10]: 90 % of control
- T/C (dose: 100.0 mg/kg/injection, schedule: Q04DX003 (ip), vehicle: other): 109 % of control
- T/C (dose: 200.0 mg/kg/injection, schedule: Q04DX003 (ip), vehicle: other): 122 % of control
- T/C (dose: 400.0 mg/kg/injection, schedule: Q04DX003 (ip), vehicle: other): 122 % of control

SMILES: Nc1nc(=O)n(C2OC(CO)C(O)C2O)c2scnc12 (stereo not drawn)
- T/C [1]: 108 % of control
- T/C [3]: 118 % of control
- T/C [5]: 118 % of control
- T/C (dose: 200.0 mg/kg/injection, schedule: Q04DX003 (ip), vehicle: saline): 108 % of control

SMILES: N#CN1CC(C(=O)N2CCCCC2)C=C2c3cccc4[nH]cc(c34)CC21 (stereo not drawn)
- T/C (dose: 6.25 mg/kg/injection, schedule: Q01DX009 (ip), vehicle: saline): 106 % of control
- T/C (dose: 6.25 mg/kg/injection, schedule: Q04DX003 (ip), vehicle: saline): 114 % of control
- T/C (dose: 12.5 mg/kg/injection, schedule: Q01DX009 (ip), vehicle: saline): 94 % of control
- T/C (dose: 12.5 mg/kg/injection, schedule: Q04DX003 (ip), vehicle: saline): 113 % of control
- T/C [1]: 106 % of control
- T/C [2]: 88 % of control
- T/C [3]: 106 % of control
- T/C [5]: 94 % of control

SMILES: COC(=O)c1cc2ccccc2o1
- T/C [15]: 95 % of control
- T/C [16]: 95 % of control
- T/C (dose: 400.0 mg/kg/injection, schedule: Q04DX003 (ip), vehicle: saline with Tween-80): 91 % of control

SMILES: COc1ccc(NC(=O)Oc2ccc(-c3ccccc3)cc2Br)cc1
- T/C [6]: 91 % of control
- T/C [7]: 95 % of control
- T/C [8]: 91 % of control

SMILES: COc1cc(C=Nc2cccc(Br)c2)ccc1N(CCCl)CCCl
- T/C (dose: 5.5 mg/kg/injection, schedule: Q04DX003 (ip), vehicle: saline with Tween-80): 159 % of control
- T/C (dose: 8.3 mg/kg/injection, schedule: Q04DX003 (ip), vehicle: saline with Tween-80): 177 % of control
- T/C (dose: 12.5 mg/kg/injection, schedule: Q04DX003 (ip), vehicle: saline with Tween-80): 190 % of control
- T/C (dose: 25.0 mg/kg/injection, schedule: Q04DX003 (ip), vehicle: other): 250 % of control
- T/C (dose: 100.0 mg/kg/injection, schedule: Q01DX009 (ip), vehicle: saline sonified): 90 % of control

SMILES: C[C@]12CCC(=O)C=C1CC[C@@H]1[C@@H]2[C@@H](O)C[C@@]2(C)[C@H]1CC[C@]2(C)O
- T/C [11]: 86 % of control

SMILES: Cc1c2oc3c(C)ccc(C(=O)NCCc4ccccn4)c3nc-2c(C(=O)NCCc2ccccn2)c(N)c1=O
- T/C (dose: 100.0 mg/kg/injection, schedule: Q04DX002 (ip), vehicle: saline with Tween-80): 101 % of control
- T/C (dose: 200.0 mg/kg/injection, schedule: Q04DX002 (ip), vehicle: saline with Tween-80): 92 % of control
- T/C (dose: 400.0 mg/kg/injection, schedule: Q04DX002 (ip), vehicle: saline with Tween-80): 97 % of control

SMILES: CC(=O)C(=O)N1Cc2cc3ccccc3nc2C1
- T/C (dose: 50.0 mg/kg/injection, schedule: Q01DX001 (ip), vehicle: saline sonified): 100 % of control
- T/C (dose: 100.0 mg/kg/injection, schedule: Q01DX001 (ip), vehicle: saline sonified): 100 % of control
- T/C (dose: 200.0 mg/kg/injection, schedule: Q01DX001 (ip), vehicle: saline sonified): 100 % of control

SMILES: Cc1cc(-c2ccccc2)[n+](C)n1C
- T/C [17]: 98 % of control
- T/C [13]: 118 % of control

SMILES: O=C(O)CCCCCNC(=O)OCc1ccccc1
- T/C (dose: 100.0 mg/kg/injection, schedule: Q01DX009 (ip), vehicle: gum acacia): 112 % of control
- T/C (dose: 100.0 mg/kg/injection, schedule: Q04DX003 (ip), vehicle: gum acacia): 100 % of control
- T/C (dose: 200.0 mg/kg/injection, schedule: Q01DX009 (ip), vehicle: gum acacia): 104 % of control
- T/C (dose: 200.0 mg/kg/injection, schedule: Q04DX003 (ip), vehicle: gum acacia): 100 % of control
- T/C (dose: 400.0 mg/kg/injection, schedule: Q01DX009 (ip), vehicle: gum acacia): 108 % of control
- T/C (dose: 400.0 mg/kg/injection, schedule: Q04DX003 (ip), vehicle: gum acacia): 116 % of control

SMILES: CC1(C)N=C(N)N=C(N)N1c1cccc(CNC(=O)Nc2cccc(S(=O)(=O)F)c2)c1
- T/C [10]: 154 % of control
- T/C [14]: 100 % of control
- T/C [11]: 168 % of control
- T/C [15]: 100 % of control
